# According to patent US8921405B2, “Compounds” (Orexo AB, priority 2009, dated 2014):
# Biological target: T1, recombinant human mPGES-1 (Homo sapiens, UniProt O14684)
# T1 construct: made in house; host or cells: Rosetta E. coli (membrane/microsome fraction)
# T1 sequence (O14684 1-152): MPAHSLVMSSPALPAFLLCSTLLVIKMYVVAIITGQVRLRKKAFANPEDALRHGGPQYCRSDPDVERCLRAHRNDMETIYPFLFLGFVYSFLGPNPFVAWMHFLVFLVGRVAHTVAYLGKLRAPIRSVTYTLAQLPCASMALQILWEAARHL
# Assay: mPGES-1 HTRF assay (inhibition of PGE2 formation from PGH2)
# Format: biochemical
# Conditions: not given
# Method: The basis of the assay used is to measure the inhibition of microsomal prostaglandin E2 synthase-1 (mPGES-1) dependent prostaglandin (PG) E2 formation from PGH2 by different compounds. Thus, the formation of PGE2 is used as signal and a lowering of this signal can be interpreted as inhibition of mPGES-1. […] Microsomes from Rosetta E. coli bacteria expressing recombinant human mPGES-1 can be derived as described below: Inoculate 5 ml LB with Amp and Chloro with bacteria from freeze culture. Incubate over night at 37° C. with 200 rpm. Thereafter, inoculate 500-800 ml LB containing Amp and Chloro with the 5 ml on culture and grow to OD640 of 0.6-0.8. Chill the culture to +4° C. before induction. Induce the culture with IPTG at a final concentration of 400 μM. Express the protein at room temp 18-23° C. with 200 rpm shaking over night. The following steps can be performed on the following day: • 1. Spin down the cells in 250 ml centrifuge flasks for 15 min at 7000 rpm • 2. Dissolve the pellet from 250 ml culture in 12.5 ml homogenization buffer • 3. Disintegrate the cells by sonication, 4×10 seconds at 35% amplitude • 4. Add 2.5 ml MgCl2 (100 mM) and DNase 12.5 μl (0.8 mg/ml) and incubate on ice for 30 min • 5. Spin down the bacteria debris and save the supernatant, 7000 rpm for 15 min • 6. Isolate the protein containing membranes in the supernatant by ultracentrifugation 45000×g for 1 hour. • 7. Discard the supernatant and dissolve the pellet in 20 mM KPi buffer and aliquot the enzyme and store aliquots at −80° C. Before each experiment is performed an aliquot of the enzyme is thawed and it can then be dissolved in 0.1 M KPi pH 7.4 buffer containing 2.5 mM GSH. 50 μl of this enzyme solution is subsequently dispensed in a 384-well plate at room temperature. 0.5 μl of the inhibitor dissolved in DMSO is thereafter added to each well and incubated for 25 minutes at room temperature. Subsequently, 2 μl of PGH2 dissolved in an appropriate solvent is added to each well and after one minute at room temperature, the acidified stop solution containing FeCl2 is added. 4 μl of the total volume is transferred to a separate plate and diluted 750-fold in two separate steps before quantification of PGE2. In order to quantitate the amount of PGE2 that has been formed, a homogenous time resolved fluorescent (HTRF) detection of PGE2 can be performed by the use of a commercially available kit from CisBio essentially according to the manufacturer's protocol. […] The sealing film is thereafter removed from the NC wells. • 5 μl Eu3+-cryptate labeled anti-PGE2 can now be added to rows 1 to 24 by using a Multidrop. • The plate can now be covered with sealing film. • The plate can now be centrifuge at 1200 rpm for 1 minute and place at 4° C. overnight. After the over night incubation the fluorescence is measured by the use of an appropriate microplate reader. […] The extent of the specific HTRF is measured as a ratio of the emission intensity at 665 nm vs. that at 620 nm. A standard curve using synthetic PGE2 is used to quantify the amount of PGE2 in unknown samples. The degree of inhibition can be calculated as percent inhibition by dividing the amount of PGE2 formed in unknown samples by the amount of PGE2 formed in control samples.
row,SMILES,inhibition at 10 µM
1,"CC(=O)NC(C)c1ccc(Cl)c(Nc2nc3cc(C(=O)Nc4ccc(Br)cc4)ccc3n2C)c1 (stereo not shown) [Example 1, 2-[5-(1-Acetamidoethyl)-2-chlorophenylamino]-N-(4-bromophenyl)-1-methylbenzimidazole-5-carboxamide]",100%

# Same assay, conditions: compound concentration of 10 μM, HTRF assay
row,SMILES,% inhibition
1,"Cn1c(Nc2cc(CNC(=O)C3(C)CCCCC3)ccc2Cl)nc2cc(Cl)c(NC(=O)C3CCCC3)cc21 [Example 6, N-{4-chloro-3-[5-chloro-6-(cyclopentylamido)-1-methyl-2-benzimidazolylamino]benzyl}-1-methylcyclohexylamide]",100%

# Same assay, conditions: compound concentration of 10 μM, HTRF assay; read-out: % inhibition
row,SMILES,inhibition at 10 µM
1,"Cn1c(Nc2cc(CNC(=O)C3(C)CCCCC3)ccc2Cl)nc2cc(C(=O)NC3CCCC3)c(Cl)cc21 [Example 3, 6-Chloro-2-{2-chloro-5-[(1-methylcyclohexylamido)methyl]phenylamino}-N-cyclopentyl-1-methylbenzimidazole-5-carboxamide]",100%
2,"CC1(C(=O)NCc2ccc(Cl)c(Nc3nc4cc(C(=O)N5CCCC5)ccc4[nH]3)c2)CCCCC1 [Example 4, N-{4-Chloro-3-[5-(1-pyrrolidinylcarbonyl)-2-benzimidazolylamino]benzyl}-1-methylcyclohexylamide]",83%
3,"Cn1c(Nc2cc(CNC(=O)C3(C)CCCCC3)ccc2Cl)nc2cc(Cl)c(NC(=O)OC(C)(C)C)cc21 [Example 5, tert-Butyl 5-chloro-2-{2-chloro-5-[(1-methylcyclohexylamido)methyl]phenylamino}-1-methyl-6-benzimidazolylcarbamate]",100%
4,"Cn1c(Nc2cc(CNC(=O)C3(C)CCCCC3)ccc2Cl)nc2cc(S(=O)(=O)NC3CCCC3)ccc21 [Example 7, N-{4-Chloro-3-[5-(N-cyclopentylsulfamoyl)-1-methyl-2-benzimidazolylamino]benzyl}-1-methylcyclohexylamide]",98%
5,"Cn1c(Nc2cc(CNC(=O)C3(C)CC3)ccc2Cl)nc2cc(C(=O)NCC3CCCCC3)ccc21 [Example 8, 2-{2-Chloro-5-[(1-methylcyclopropylamido)methyl]phenylamino}-N-cyclohexylmethyl-1-methylbenzimidazole-5-carboxamide]",98%
6,"Cn1c(Nc2cc(CNS(=O)(=O)c3cccs3)ccc2Cl)nc2cc(C(=O)NCC3CCCCC3)ccc21 [Example 9, 2-{2-Chloro-5-[(2-thienylsulfonamido)methyl]phenylamino}-N-cyclohexylmethyl-1-methylbenzimidazole-5-carboxamide]",98%
7,Cn1c(Nc2cc(CNC(=O)C3(C)CC3)ccc2Cl)nc2cc(C(=O)Nc3ccc(Br)cc3)ccc21 [Example 10],100%
8,"Cn1c(Nc2cc(CNC(=O)C3(C(F)(F)F)CC3)ccc2Cl)nc2cc(C(=O)NCC3CC3)ccc21 [Example 11, 2-{2-chloro-5-[(1-trifluoromethylcyclopropylamido)methyl]phenylamino}-N-cyclopropylmethyl-1-methylbenzimidazole-5-carboxamide]",100%
9,"Cn1c(Nc2cc(CNC(=O)C3(C)CCCCC3)ccc2Cl)nc2cc(C(=O)N3CCCC3)ccc21 [Example 12, N-{4-Chloro-3-[1-methyl-5-(1-pyrrolidinylcarbonyl)-2-benzimidazolylamino]benzyl}-1-methylcyclohexylamide]",100%
10,"CC1(C(=O)NCc2ccc(Cl)c(Nc3nc4ccc(C(=O)NC5CCCC5)cc4[nH]3)c2)CCCCC1 [Example 13, 2-{2-Chloro-5-[(1-methylcyclohexylamido)methyl]phenylamino}-N-cyclopentylbenzimidazole-5-carboxamide]",100%
11,"Cn1c(Nc2cc(CNC(=O)C3(C)CCCCC3)ccc2Cl)nc2cc(C(=O)NC3CCCC3)ccc21 [Example 14, 2-{2-Chloro-5-[(1-methylcyclohexylamido)methyl]phenylamino}-N-cyclopentyl-1-methylbenzimidazole-5-carboxamide]",100%
